Experimental findings from ChEMBL document CHEMBL1140173, “Clerodane diterpenoids with NGF-potentiating activity from Ptychopetalum olacoides” (J Nat Prod, 2008) are described below.

For assay [1], the system named is PC-12. Nature of the assay: Induction of neurite outgrowth in rat PC12 cells in absence of nerve growth factor at 0.1 to 10.0 uM. Type of assay: functional, cell-based.
Assay [2] has as its system PC-12. Nature of the assay: Induction of neurite outgrowth in rat PC12 cells in presence of nerve growth factor at 0.1 to 10.0 uM. Type of assay: functional, cell-based.

Molecules are shown by their SMILES. Active and inactive are the calls of the source. The rule behind the calls is not given here.

In the case of `CC1=CCC[C@@H]2[C@]3(CCc4ccoc4)C(=O)O[C@H](C[C@@]12C)[C@H]3C`, the result in the assay with PC-12 [1] and in the assay on PC-12 [2] was inactive.
Take `CO[C@H]1O[C@@H]2C[C@@]3(C)C(C)=CCC[C@@H]3[C@@]1(CCc1ccoc1)[C@@H]2C`: the result in the assay on PC-12 [1] and in the assay on PC-12 [2] was inactive.
